Consider three compounds from patent US4515781A, “2',5'-Riboadenylate-morpholinoadenylate nucleotides” (The United States of America as represented by the …, priority 1983, dated 1985).

“Also recorded” adds a separate entry of the source.

Data set [1] deals with protein synthesis in mouse L cell extracts programmed by encephalomyocarditis virus RNA. Description: Inhibition of protein synthesis (translation) in extracts of mouse L cells programmed with encephalomyocarditis virus RNA. It is filed as biochemical. Conditions: tetramer (12) alone. Here is the method:
(§1) The preparation of cell extracts and the techniques and conditions of cell-free protein synthesis in extracts of interferon-treated or untreated mouse L cells have been described elsewhere.
(§2) This observation provided a relatively simple approach to determine if a given nucleotide or oligoribonucleotide is capable of significant binding to the 2-5A-activated ribonuclease. For this reason, the (2'→5')oligoadenylates 5'-monophosphates, 11 and 12, were evaluated first for their ability to block the translational inhibitory effects of ppp5'A2'p5'A2'p5'A in extracts of mouse L cells programmed by encephalomyocarditis virus RNA. In the experiment, the 2-5A trimer, ppp5'A2'p5'A2'p5'A, was added in varying concentrations, with or without the tetranucleotide 5'-monophosphate inhibited translation with a concentration for half-maximal response of ~2×10^-9 M in agreement with other values in the literature. However, when 12 was also present at a concentration of 8×10^-5 M, there was at least a 1000-fold increase in the concentration of 2-5A trimer triphosphate required to bring about a half-maximal inhibition of protein synthesis.

In data set [2] the test system is 2-5A-activated ribonuclease (translational inhibitory effects of ppp5'A2'p5'A2'p5'A). Description: Antagonism of 2-5A trimer triphosphate translational inhibition in mouse L cell extracts. It counts as biochemical. Here is the method: as §1
as §2, with “synthesis. […]” for “synthesis.”

For data set [3], the system named is 2-5A-dependent endoribonuclease. Description: Prevention of 2-5A-activated degradation of [3H]-encephalomyocarditis virus RNA in extracts of mouse L cells. It counts as biochemical. The source says:
(§3) To ascertain if the 2'-terminally modified (2'→5')oligonucleotides prevented the protein synthesis inhibitory action of 2-5A by the same mechanism as does p5'A2'p5'A2'p5'A (i.e., by preventing the activation of the 2-5A-dependent endoribonuclease), the 2-5A-enhanced degradation of [^3 H]-encephalomyocarditis virus RNA was followed in extracts of mouse L cells in the presence or absence of the modified tetramer monophosphate (12). The 2-5A-activated degradation of encephalomyocarditis virus RNA was prevented by 12; furthermore, there was good agreement between the results since in both instances a concentration of 8×10^-5 M 12 caused approximately a 1000-fold increase in the concentration of ppp5'A2'p5'A2'p5'A needed to effect 50% of the maximum inhibition.

Data set [4] deals with poly(I)·poly(C) action (2-5A synthetase-endonuclease system). Description: Antagonism of poly(I).poly(C) protein synthesis inhibition in extracts of interferon-treated mouse L cells. It is filed as biochemical.
Description: as §1
This observation implied that the inhibitory action of poly(I)·poly(C) is mediated chiefly by the 2-5A synthetase-endonuclease system. […] As observed previously with p5'A2'p5'A2'p5'A, the reversal of inhibition of poly(I)·poly(C) was not complete.

The subject of the next data set is 2-5A synthetase. Description: Kinetics of 2-5A synthesis in the presence of compound 11 or 12. It is filed as biochemical, mouse. The conditions noted are these: standard synthetase assay conditions. Here is the method:
Incubation was at 30° for the designated times at which aliquots (35 μL) were removed and diluted 10× in cold H2 O. These diluted reaction mixtures were frozen at -90° until analysis.
Reaction mixture were analyzed by thin layer chromatography by spotting 2 μL of the diluted reaction mixture on a plastic PEI cullulose plate (E. Merck). The plate was developed first with solvent system D and then three times with solvent system C. […] A template of the developed film was made with aid of tracing paper, and this was used to locate the corresponding radioactive spots on the tlc plate. The plate was cut according to the positions indicated by the template, and the resulting pieces were counted with 10 mls of fluor in a standard scintillation vial. The percentage of each radioactive component by the gross radioactivity associated with all the components visualized on tlc. The position of ATP, pp5'A2'p5'A,pppA2'p5'A2'p5'A, etc. were determined from authentic markers.

For data set [5], the target named is antip5'A2'p5'A2'p5'Aserum. Description: Reactivity of 2',5'-oligoadenylates with antibody (enzyme-linked immunoassay). It counts as binding. Conditions: for IC50: enzyme-linked immunoassay, read-out: IC50, concentration required to achieve a 50% inhibition of reactivity with antip5'A2'p5'A2'p5'Aserum.
Description: ^a Concentration in nanomolar required to achieve a 50% inhibition of
reactivity with antip5'A2'p5'A2'p5'Aserum in an enzymelinked immunoassay.
The nature of data set [6]: Stability of 2',5'-oligoadenylates in mouse L-cell extracts, immunochemical study. It counts as in vitro ADME. The method, then:
Oligoadenylates at a final concentration of 400 nM were incubated under protein synthesis conditions (minus [^3 H]-leu and EMCV RNA) at 30° C. for 0-6 hours. Samples were removed diluted with an equal volume of phosphate-buffered saline (PBS, 0.01M sodium phosphate, pH 7.4, 0.14M NaCl) with added 0.05% polyoxyethylene sorbitan monolaurate, (PSM) and then heated at 95° C. for 10-15 minutes. After cooling, the samples were centrifuged for 1 min. at room temperature in an Eppendorf microfuge. The supernatant samples were serially diluted (three-fold) in 0.05% PSM prior to analysis in a competitive enzyme-linked antibody assay.
In a second series of experiments, the degradation of both the 5'-monophosphates and 5'-triphosphate of the terminally modified oligomers was compared to the degradation of the corresponding unmodified mono- and tri-phosphates. In this case, however, the course of reaction was followed using an immunoenzymometric assay for 2-5A and its derivatives. The antiserum employed in this study was inhibited 50% by both the unmodified and 2'-terminally modified 2',5'-oligoadenylates in the nanomolar range, the tetramer oligoadenylates being 2-5 times more reactive than the corresponding trimer species (Table 3, experimental). In contrast, the dimers were much less reactive, requiring concentrations of about 300 nM to achieve this same level of inhibition. […]

The test system of data set [7] is 2-5A-dependent endoribonuclease (RNase L). Description: 2-5A-enhanced degradation of [3H]-encephalomyocarditis virus RNA in cell extracts (activation of RNase L). It is filed as biochemical, mouse.
Description: as §3
The enhanced activity of the 2'-terminally modified tetramer triphosphate 13 also was observed when the degradation of [^3 H]-encephalomycarditis virus RNA in cell extracts was examined. Modified tetramer triphosphate (13) enhanced degradation of labeled RNA with a concentration of 9×10^-11 M necessary to elicit a half-maximal response compared to ppp5'A2'p5'A2'p5'A which required a concentration of 9×10^-10 M to elicit a half-maximal response. In addition, there was good correlation between these values and the corresponding concentrations response for inhibition of protein synthesis.

A further data set has as its system reticulocyte lysate. Conditions: compared to tetramer triphosphate; cited from earlier work.

For the compound “5'-monophosphoryladenylyl-(2'→5')-adenylyl-(2'→5')adenylyl(2'→6')(3'-aza-4'-hexyl-1',2',3',4'-tetradeoxyhexopyranos-1'-yl)adenine [Compound 12]”, the “effect on translation by itself” value in [1] is “no significant effect on translation”. The “effectiveness as antagonist of 2-5A action (in words)” value in data set [2] is given as “somewhat more effective than the trimer 11 in preventing 2-5A action”. Besides, the “increase in the concentration of 2-5A trimer triphosphate required for half-maximal inhibition of protein synthesis” value in data set [2] (12 at 8×10^-5 M) was at least 1000 fold. Moreover, in data set [3], the “prevention of 2-5A-activated degradation of encephalomyocarditis virus RNA” value is “prevented”. In [3] (8×10^-5 M 12), the “increase in the concentration of ppp5'A2'p5'A2'p5'A needed to effect 50% of the maximum inhibition” value is given as about 1000 fold. Besides, the “prevention of protein synthesis inhibition caused by poly(I).poly(C) (in words)” value in data set [4] is recorded as “not complete”. For the same compound, the “potency in preventing the inhibitory action of poly(I).poly(C) (in words)” value in [4] (11 vs 12) is recorded as “approximately equal potency”. In addition, the figures for the “effect on the rate of synthesis of 2-5A” value with 2-5A synthetase and with 2-5A synthetase (listed as "tailed" (pA)4) were “neither 11 nor 12 affected the rate of formation of 2-5A” and “neither "tailed" (pA)3 nor "tailed" (pA)4 had any significant effect on the rate of synthesis”, respectively. Also, the IC50 in [5] is 1 nM. Also, the “stability in cell-free extracts relative to unmodified 2',5'-oligoadenylates” value in data set [6] is reported as “markedly more stable in cell-free extracts than the unmodified 2',5'-oligoadenylates”. In data set [6] (4×10^-7 M oligomer, 6 hours of incubation), the “antibody reactivity during incubation” value is on record as “did not decrease even after 6 hours of incubation; also recorded: increased slightly with time”.

On to `Nc1ncnc2c1ncn2[C@@H]1O[C@H](CO)[C@@H](O)[C@H]1O` [adenosine], for which, in data set [5], the “antibody inhibition by mononucleotides and adenosine” value is listed as “inhibitory only at millimolar concentrations”.

Take ppp5'A2'p5'A2'p5'A: the “activity as activator of RNase L (in words)” value in [7] is reported as “quite similar as activators of RNase L”. Besides, the IC50 in data set [5] turned out to be 18 nM. Further, in the data set on reticulocyte lysate, the “biological activity in reticulocyte lysate” value was “anomalously low compared to tetramer triphosphate”.
